What was measured:
Ht-29 cells = assay: Resazurin reduction viability assay; assay type: cell-based, human; settings: Ht-29, 1, 5, and 25 µM, 48 h, n = 3
HeLa S-3 cells = assay: Resazurin reduction viability assay; settings: HeLa, 1, 5, and 25 µM, 48 h, n = 3
Protocol: For the resazurin-to-resorufin reduction assays, cells were grown in a 96-well plate for 120 min at 37 °C with resazurin solution (0.15 mg/ml) (Sigma-Aldrich, Milan, Italy). The fluorescence of resorufin was quantified on a PerkinElmer EnSpire 2,300 Multilabel Reader (ex 550 nm/em 590 nm). For the Apo-ONE assay, 25,000 cells were seeded in a 96-well white polystyrene microplate (Corning, United States of America). After 24 h, cells were treated for 36 h with oxaliplatin and oxaliplatin+SS35. Cells were then lysed and subjected to caspase-3/7 (DEVDase) activity assays by using the Apo-ONE Homogeneous Caspase-3/7 Assay (Promega, Madison, United States of America) according to the manufacturer’s instructions. After 30 min of incubation, fluorescence was recorded in the linear phase of the kinetics with a Synergy H1 plate reader (BioTek, Winooski, United States of America). For the trypan blue viability assay, cells were harvested, pelleted at 1500 rcf, and incubated for 5 min with a PBS/0.4% Trypan Blue solution (Gibco). At least 300 cells were counted for each condition.
First, Ht-29 and HeLa cells were treated with increasing doses (0.02, 0.04, and 0.06 μg/ml) of SS28, SS35, and SS36 for 48 h, and cell viability was assessed by resazurin reduction assays (Figure 6A). […]

[1] = Determination of PMO peptide functionalization by absorbance; assay type: physicochemical; settings: UV absorbance in ethanol, Phe (257 nm) and Fmoc-Ala (267 nm) calibration curves, PMO baseline subtracted; estimated
Protocol: To quantify the amounts of peptides on the PMO, a Varian Cary 50 bio benchtop spectrophotometer in the range of 200–800 nm with a 1-nm step was used ([Faura et al. 2021]). The calibration curves were determined by preparing five solutions at known concentrations of Phenylalanine and Fmoc-Alanine used as standards. Briefly, a stock solution of 5 mM Phe in absolute ethanol was diluted to the final concentrations of 0.2 mM, 0.5 mM, […], 2 mM, and 5 mM. A standard solution of 52.7 μM Fmoc-Alanine (Ala) in absolute ethanol was diluted to the concentrations of 20 μM, 10 μM, 5 μM, and 2 μM. The fluorescence signals were recorded for Phenylalanine (Phe: λex 240 nm and λem 282 nm) ([Lakowicz, 2006]) and Fmoc-Ala (λex […] and λem 280 nm) ([Pappas et al., 2014]) and plotted against their respective sample concentrations. […]
The absorbance values of peptides linked to PMOs were adjusted to account for potential interference caused by PMOs, which can scatter or absorb light in the visible and UV ranges, leading to inaccuracies in absorbance measurements of chromophores. The absorbance spectrum of PMO was subtracted from the absorbance spectrum of the sample containing the peptide@PMO. In the region of absorption of the chromophore, we observed a linear and well-defined relationship between the absorbance of PMO and wavelength. […]

Molecule	cytotoxicity of free peptide compared with nanoparticle-conjugated peptide (Ht-29 cells)	cytotoxicity of free peptide compared with nanoparticle-conjugated peptide (HeLa S-3 cells)	Peptide/PMO: peptide amount binding for each milligram of PMO [1] [mg]
N=C(N)NCCC[C@@H]1NC(=O)[C@H](CCCCN)NC(=O)[C@@H](Cc2ccccc2)NC(=O)[C@H](CC(=O)O)NC(=O)CNC1=O [p28, cyclic[RGDfK]]	significantly attenuated	significantly attenuated	
FmocAVPI@PMO [Fmoc-protected AVPI peptide conjugated to PMO, apparently the precursor of SS36]			0.074
